Legend:
Design in all cases: key: 0: no positive effect; 10: slight positive effect; 20: clear positive effect; 30: strong positive effect
[1] = test system: Triticum aestivum (TRZAS); assay: In vivo analyses Part B: drought stress, appearance vs stressed control plants in categories (TRZAS); conditions: spray application 250 g/ha, category vs stressed control plants, 2-3 pots
Description: Seeds of monocotyledonous and dicotyledonous crop plants were sown in sandy loam in plastic pots, covered with soil or sand and cultivated in a greenhouse under good growth conditions. The test plants were treated at the early leaf stage (BBCH10-BBCH13). To assure uniform water supply before commencement of stress, the potted plants were supplied with water by dam irrigation prior to substance application. The inventive compounds, formulated in the form of wettable powders (WP), were sprayed onto the green parts of the plants as an aqueous suspension at an equivalent water application rate of 600 I/ha with addition of 0.2% wetting agent (e.g. agrotin). Substance application was followed immediately by stress treatment of the plants. Drought stress was induced by gradual drying out under the following conditions: “Day”: 14 hours with illumination at 26-30° C. “Night”: 10 hours without illumination at 18-20° C. The duration of the respective stress phases was guided mainly by the condition of the stressed control plants. It was ended (by re-irrigating and transfer to a greenhouse with good growth conditions) as soon as irreversible damage was observed on the stressed control plants. The end of the stress phase was followed by an about 4-7-day recovery phase, during which the plants were once again kept under good growth conditions in a greenhouse. The duration of the recovery phase was guided mainly by when the trial plants had attained a state which enabled visual scoring of potential effects, and was therefore variable. Once this juncture had been reached, the appearance of the plants treated with test substances was recorded in comparison to the stressed control plants by the following categories: [table] In order to rule out any influence on the effects observed by any fungicidal or insecticidal action of the test compounds, it was additionally ensured that the tests proceeded without fungal infection or insect infestation. For each substance and dosage, 2-3 pots were treated and evaluated. TRZAS=Triticum aestivum

[2] = test system: Brassica napus (BRSNS); assay: In vivo analyses Part B: drought stress, appearance vs stressed control plants in categories (BRSNS); conditions: spray application 250 g/ha, category vs stressed control plants, 2-3 pots
Description: Seeds of monocotyledonous and dicotyledonous crop plants were sown in sandy loam in plastic pots, covered with soil or sand and cultivated in a greenhouse under good growth conditions. The test plants were treated at the early leaf stage (BBCH10-BBCH13). To assure uniform water supply before commencement of stress, the potted plants were supplied with water by dam irrigation prior to substance application. The inventive compounds, formulated in the form of wettable powders (WP), were sprayed onto the green parts of the plants as an aqueous suspension at an equivalent water application rate of 600 I/ha with addition of 0.2% wetting agent (e.g. agrotin). Substance application was followed immediately by stress treatment of the plants. Drought stress was induced by gradual drying out under the following conditions: “Day”: 14 hours with illumination at 26-30° C. “Night”: 10 hours without illumination at 18-20° C. The duration of the respective stress phases was guided mainly by the condition of the stressed control plants. It was ended (by re-irrigating and transfer to a greenhouse with good growth conditions) as soon as irreversible damage was observed on the stressed control plants. The end of the stress phase was followed by an about 4-7-day recovery phase, during which the plants were once again kept under good growth conditions in a greenhouse. The duration of the recovery phase was guided mainly by when the trial plants had attained a state which enabled visual scoring of potential effects, and was therefore variable. Once this juncture had been reached, the appearance of the plants treated with test substances was recorded in comparison to the stressed control plants by the following categories: [table] In order to rule out any influence on the effects observed by any fungicidal or insecticidal action of the test compounds, it was additionally ensured that the tests proceeded without fungal infection or insect infestation. For each substance and dosage, 2-3 pots were treated and evaluated. BRSNS=Brassica napus

[3] = test system: Zea mays (ZEAMX); assay: In vivo analyses Part B: drought stress, appearance vs stressed control plants in categories (ZEAMX); conditions: spray application 25 g/ha, category vs stressed control plants, 2-3 pots
Description: Seeds of monocotyledonous and dicotyledonous crop plants were sown in sandy loam in plastic pots, covered with soil or sand and cultivated in a greenhouse under good growth conditions. The test plants were treated at the early leaf stage (BBCH10-BBCH13). To assure uniform water supply before commencement of stress, the potted plants were supplied with water by dam irrigation prior to substance application. The inventive compounds, formulated in the form of wettable powders (WP), were sprayed onto the green parts of the plants as an aqueous suspension at an equivalent water application rate of 600 I/ha with addition of 0.2% wetting agent (e.g. agrotin). Substance application was followed immediately by stress treatment of the plants. Drought stress was induced by gradual drying out under the following conditions: “Day”: 14 hours with illumination at 26-30° C. “Night”: 10 hours without illumination at 18-20° C. The duration of the respective stress phases was guided mainly by the condition of the stressed control plants. It was ended (by re-irrigating and transfer to a greenhouse with good growth conditions) as soon as irreversible damage was observed on the stressed control plants. The end of the stress phase was followed by an about 4-7-day recovery phase, during which the plants were once again kept under good growth conditions in a greenhouse. The duration of the recovery phase was guided mainly by when the trial plants had attained a state which enabled visual scoring of potential effects, and was therefore variable. Once this juncture had been reached, the appearance of the plants treated with test substances was recorded in comparison to the stressed control plants by the following categories: [table] In order to rule out any influence on the effects observed by any fungicidal or insecticidal action of the test compounds, it was additionally ensured that the tests proceeded without fungal infection or insect infestation. For each substance and dosage, 2-3 pots were treated and evaluated. ZEAMX=Zea mays

Structure (SMILES) | Effect (TRZAS) [1] | Effect (BRSNS) [2] | Effect (ZEAMX) [3]
CC/C(C#CC(O)(c1ccccc1)C1(C#N)CC1)=C/C(=O)OC (stereo not shown) [I.1-202] | 20 | 20 | 10-20
CCOC(=O)/C=C(\C#CC(O)(C(C)C)C1(C#N)CC1)CC (stereo not shown) [I.1-103] | 10-20 | 30 | 10-20
COC(=O)/C=C(/C)C#CC(O)(C(C)C)C1(C#N)CC1 (stereo not shown) [I.1-135] | 30 | 30 | 
CCCOC(=O)/C=C(\C#CC(O)(C(C)C)C1(C#N)CC1)CC (stereo not shown) [I.1-605] | 20 | 20 | 
CCCOC(=O)/C=C(\C#CC(O)(c1ccccc1)C1(C#N)CC1)CC (stereo not shown) [I.1-609] | 10 | 10-20 | 20

Source: patent US10322995B2, “Substituted cyano cycloalkyl penta-2,4-dienes, cyano cycloalkyl pent-2-en-4-ynes, cyano heterocyclyl penta-2,4-dienes and cyano heterocyclyl pent-2-en-4-ynes as active substances against abiotic plant stress” (BAYER CROPSCIENCE AKTIENGESELLSCHAFT, priority 2014, dated 2019)
